# Patent US4565774A, “Method for the formation of dye image” (priority 1981, dated 1986)
# Like-named read-outs stand apart in the source and are kept apart here.
# Experiment: acid dissociation constant (Ka) of the added compound, measured at a normal temperature
# Format: physicochemical
# Experimental: The acid dissociation constant value is what was measured at a normal temperature, and is described in, e.g., the annex vol. 2 to the "Dai Yuki-Kagaku (Complete Organic Chemistry)" (published by Asakura Publishing Co., Ltd.), "The Theory of Photographic Process" written by T. H. James, 4th ed. (Published by McMillan), and the like. For the measurement of the acid dissociation constant there are several methods, and reference may be made to, e.g., the "Jikken Kagaku Koza (Course of Experimental Chemistry)" vol. 11, second series, (published by Maruzen Co., Ltd.) pp. 524 to 552, and the like.
# To the above-prepared developer was added each of the compounds as given in Table 1 to thereby prepare color developers [A] to [M].
# [1] = normal temperature, read-out: acid dissociation constant (Ka) (converted)
SMILES,pKa [1],pKa
"c1c[nH]cn1 [Comparative compound (1), Imidazole]",7.2,–
"Cc1cc(O)n2ncnc2n1 [Comparative compound (2), 4-hydroxy-6-methyl-1,3,3a,7-tetrazaindene]",6.49,–
"Sc1nnnn1-c1ccccc1 [Comparative compound (3), 1-phenyl-5-mercaptotetrazole]",3.34,–
c1ccc2[nH]cnc2c1 [Exemplified compound S-1],11.7,–

# Now from value to compound:
pKa [1],pKa,SMILES
10.3,–,CCCc1ccc2nc[nH]c2c1 [Exemplified compound S-5]
–,9.8,Nc1ncnc2nc[nH]c12 [Exemplified compound S-11]
